Source: patent publication US9884868B2, “TGF-beta inhibitors” (Rigel Pharmaceuticals, Inc., priority 2015, dated 2018)
Like-named read-outs stand apart in the source and are kept apart here.

Columns and labels:
HIS-TGF-βR2 WT = HIS-TGF-βR2 WT (Homo sapiens (Human), UniProt P37173); assay: HTRF probe displacement assay with HIS-TGF-βR2 WT
HIS-TGF-βR1 T204D = HIS-TGF-βR1 T204D (Homo sapiens (Human), UniProt P36897, T204D); assay: HTRF probe displacement assay with HIS-TGF-βR1 T204D
[1] = read-out: TGFBr2 IC50, HTRF probe displacement, 1 nM HIS-TGF-βR2 WT, 1 hour at room temperature
[2] = read-out: TGFbr1 IC50, HTRF probe displacement, 1 nM HIS-TGF-βR1 T204D, 1 hour at room temperature

Sequence of HIS-TGF-βR1 T204D (P36897 34-503 T204D): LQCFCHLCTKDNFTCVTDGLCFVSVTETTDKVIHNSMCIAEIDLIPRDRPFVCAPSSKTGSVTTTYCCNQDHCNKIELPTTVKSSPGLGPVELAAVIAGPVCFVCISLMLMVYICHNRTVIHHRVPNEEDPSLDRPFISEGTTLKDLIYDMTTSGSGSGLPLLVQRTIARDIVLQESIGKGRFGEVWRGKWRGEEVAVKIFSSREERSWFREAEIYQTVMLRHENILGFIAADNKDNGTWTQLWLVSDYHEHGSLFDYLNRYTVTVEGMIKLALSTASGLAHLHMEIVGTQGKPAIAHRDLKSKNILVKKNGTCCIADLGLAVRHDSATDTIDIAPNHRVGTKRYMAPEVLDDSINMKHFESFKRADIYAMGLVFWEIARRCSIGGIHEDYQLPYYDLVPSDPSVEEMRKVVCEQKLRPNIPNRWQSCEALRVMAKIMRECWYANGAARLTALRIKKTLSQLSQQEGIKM
Sequence of HIS-TGF-βR2 WT (P37173 23-567): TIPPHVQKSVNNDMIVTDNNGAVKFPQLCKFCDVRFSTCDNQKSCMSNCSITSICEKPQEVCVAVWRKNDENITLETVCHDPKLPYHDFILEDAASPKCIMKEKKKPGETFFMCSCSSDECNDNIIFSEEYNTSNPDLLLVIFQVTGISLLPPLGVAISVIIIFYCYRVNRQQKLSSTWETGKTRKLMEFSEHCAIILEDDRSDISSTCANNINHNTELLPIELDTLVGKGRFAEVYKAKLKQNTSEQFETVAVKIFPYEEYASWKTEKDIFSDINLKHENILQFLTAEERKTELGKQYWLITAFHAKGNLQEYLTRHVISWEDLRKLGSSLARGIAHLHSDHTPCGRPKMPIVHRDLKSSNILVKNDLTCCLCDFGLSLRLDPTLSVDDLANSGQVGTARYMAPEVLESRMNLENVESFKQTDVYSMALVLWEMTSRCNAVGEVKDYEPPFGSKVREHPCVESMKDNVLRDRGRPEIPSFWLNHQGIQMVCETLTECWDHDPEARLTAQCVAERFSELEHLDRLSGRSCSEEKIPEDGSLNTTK

Row | SMILES | IC50 (HIS-TGF-βR2 WT; [1]) [nM] | IC50 (HIS-TGF-βR1 T204D; [2]) [nM] | IC50 (HIS-TGF-βR2 WT) [nM] | IC50 (HIS-TGF-βR1 T204D) [nM]
1 | N#Cc1cnc2ccc(-c3c(-c4ccc(F)cc4)ncn3[C@@H](CO)CC(F)(F)F)nn12 [28′, (R)-6-(4-(4-fluorophenyl)-1-(4,4,4-trifluoro-1-hydroxybutan-2-yl)-1H-imidazol-5-yl)imidazo[1,2-b]pyridazine-3-carbonitrile] | > 15000 | 1 | – | –
2 | CC(C)(C)OC(=O)N1CC(n2cnc(-c3ccc(F)cc3)c2-c2ccc3ncc(C(N)=O)n3n2)C1 [195A′, tert-butyl 3-(5-(3-carbamoylimidazo[1,2-b]pyridazin-6-yl)-4-(4-fluorophenyl)-1H-imidazol-1-yl)azetidine-1-carboxylate] | > 15000 | 244 | – | –
3 | CS(=O)(=O)c1cccc(-c2ncn(CC(F)F)c2-c2ccc3ncc(C#N)n3n2)c1 [254′, 6-(1-(2,2-difluoroethyl)-4-(3-(methylsulfonyl)phenyl)-1H-imidazol-5-yl)imidazo[1,2-b]pyridazine-3-carbonitrile] | > 15000 | 752 | – | –
4 | CC(C)(O)CCn1cnc(-c2ccc(F)cc2)c1-c1ccc2ncc(C(N)=O)n2n1 [131′, 6-(4-(4-fluorophenyl)-1-(3-hydroxy-3-methylbutyl)-1H-imidazol-5-yl)imidazo[1,2-b]pyridazine-3-carboxamide] | > 15000 | 28.1 | – | –
5 | NC(=O)c1cnc2ccc(-c3c(-c4ccc(F)c(Cl)c4)ncn3CCC(F)(F)F)nn12 [115′, 6-(4-(3-chloro-4-fluorophenyl)-1-(3,3,3-trifluoropropyl)-1H-imidazol-5-yl)imidazo[1,2-b]pyridazine-3-carboxamide] | – | – | > 15000 | 4.6
6 | CN(C)C(=O)c1cnc2ccc(-c3c(-c4ccc(F)cc4)ncn3CC(F)F)nn12 [207′, 6-(1-(2,2-difluoroethyl)-4-(4-fluorophenyl)-1H-imidazol-5-yl)-N,N-dimethylimidazo[1,2-b]pyridazine-3-carboxamide] | > 15000 | 3 | – | –
7 | O=C(NC1CC1)c1cnc2ccc(-c3c(-c4ccc(F)cc4)ncn3CC(F)F)nn12 [208′, N-cyclopropyl-6-(1-(2,2-difluoroethyl)-4-(4-fluorophenyl)-1H-imidazol-5-yl)imidazo[1,2-b]pyridazine-3-carboxamide] | > 15000 | 1.2 | – | –
8 | N#Cc1cnc2ccc(-c3c(-c4cccc(C(F)(F)F)c4)ncn3CC(F)F)nn12 [243′, 6-(1-(2,2-difluoroethyl)-4-(3-(trifluoromethyl)phenyl)-1H-imidazol-5-yl)imidazo[1,2-b]pyridazine-3-carbonitrile] | > 15000 | 1.8 | – | –
9 | CS(=O)(=O)Nc1ccccc1-c1ncn(CC(F)F)c1-c1ccc2ncc(C#N)n2n1 [239′, N-(2-(5-(3-cyanoimidazo[1,2-b]pyridazin-6-yl)-1-(2,2-difluoroethyl)-1H-imidazol-4-yl)phenyl)methanesulfonamide] | > 15000 | 521 | – | –
10 | NC(=O)c1cnc2ccc(-c3c(-c4ccc(F)c(Cl)c4)ncn3C3CCOCC3)nn12 [144′, 6-(4-(3-chloro-4-fluorophenyl)-1-(tetrahydro-2H-pyran-4-yl)-1H-imidazol-5-yl)imidazo[1,2-b]pyridazine-3-carboxamide] | > 15000 | 4.1 | – | –
11 | N#Cc1cnc2ccc(-c3c(-c4cccc(-c5ccccc5)c4)ncn3CC(F)F)nn12 [257′, 6-(4-([1,1′-biphenyl]-3-yl)-1-(2,2-difluoroethyl)-1H-imidazol-5-yl)imidazo[1,2-b]pyridazine-3-carbonitrile] | > 15000 | – | – | –
12 | NC(=O)c1cnc2ccc(-c3c(-c4ccc(F)c(Cl)c4)ncn3C3CC(F)C3)nn12 (stereo not shown) [141′, 6-(4-(3-chloro-4-fluorophenyl)-1-(3-fluorocyclobutyl)-1H-imidazol-5-yl)imidazo[1,2-b]pyridazine-3-carboxamide] | – | 0.8 | – | –
13 | CC1(Cn2cnc(-c3ccc(F)c(Cl)c3)c2-c2ccc3ncc(C#N)n3n2)COC1 [45′, 6-(4-(3-chloro-4-fluorophenyl)-1-((3-methyloxetan-3-yl)methyl)-1H-imidazol-5-yl)imidazo[1,2-b]pyridazine-3-carbonitrile] | – | 2.3 | – | –
14 | NC(=O)c1cnc2ccc(-c3c(-c4ccc(F)cc4)ncn3CC(F)F)cn12 [230′, 6-(1-(2,2-difluoroethyl)-4-(4-fluorophenyl)-1H-imidazol-5-yl)imidazo[1,2-a]pyridine-3-carboxamide] | – | 1.7 | – | –
15 | CC(C)(O)Cn1cnc(-c2ccc(F)cc2)c1-c1ccc2ncc(C#N)n2c1 [90′, 6-(4-(4-fluorophenyl)-1-(2-hydroxy-2-methylpropyl)-1H-imidazol-5-yl)imidazo[1,2-a]pyridine-3-carbonitrile] | – | 107 | – | –

Now from value to molecule:

Row | IC50 (HIS-TGF-βR2 WT; [1]) [nM] | IC50 (HIS-TGF-βR1 T204D; [2]) [nM] | IC50 (HIS-TGF-βR2 WT) [nM] | IC50 (HIS-TGF-βR1 T204D) [nM] | SMILES
16 | > 15000 | 8.8 | – | – | N#Cc1cnc2ccc(-c3c(-c4ccc(F)c(C(F)(F)F)c4)ncn3CC(F)F)nn12 [260′, 6-(1-(2,2-difluoroethyl)-4-(4-fluoro-3-(trifluoromethyl)phenyl)-1H-imidazol-5-yl)imidazo[1,2-b]pyridazine-3-carbonitrile]
17 | > 15000 | – | – | – | CC(=O)N1CCn2c(nc(-c3ccc(F)cc3)c2-c2ccc3ncc(C(N)=O)n3c2)C1 [292′, 6-(7-acetyl-2-(4-fluorophenyl)-5,6,7,8-tetrahydroimidazo[1,2-a]pyrazin-3-yl)imidazo[1,2-a]pyridine-3-carboxamide]
18 | > 15000 | 11.9 | – | – | CC(=O)NCc1cnc2ccc(-c3c(-c4ccc(F)cc4)ncn3CC(F)F)nn12 [Example 197′, N-((6-(1-(2,2-difluoroethyl)-4-(4-fluorophenyl)-1H-imidazol-5-yl)imidazo[1,2-b]pyridazin-3-yl)methyl)acetamide]
19 | > 15000 | 121 | – | – | Fc1ccc(-c2ncn(CC(F)F)c2-c2ccc3ncc(CNCC(F)F)n3c2)cc1 [Example 275′, N-((6-(1-(2,2-difluoroethyl)-4-(4-fluorophenyl)-1H-imidazol-5-yl)imidazo[1,2-a]pyridin-3-yl)methyl)-2,2-difluoroethanamine]
20 | > 15000 | 542 | – | – | CC(=O)Nc1nc(-c2ccc(F)cc2)c(-c2ccc3ncc(C#N)n3c2)n1CC(F)F [297′]
21 | > 15000 | 1 | – | – | N#Cc1cnc2ccc(-c3c(-c4cccc(OC(F)(F)F)c4)ncn3CC(F)F)nn12 [259′, 6-(1-(2,2-difluoroethyl)-4-(3-(trifluoromethoxy)phenyl)-1H-imidazol-5-yl)imidazo[1,2-b]pyridazine-3-carbonitrile]
22 | > 15000 | 2.3 | – | – | OC(c1cnc2ccc(-c3c(-c4ccc(F)cc4)ncn3CC(F)F)nn12)C(F)(F)F (stereo not shown) [Example 213′, 1-(6-(1-(2,2-difluoroethyl)-4-(4-fluorophenyl)-1H-imidazol-5-yl)imidazo[1,2-b]pyridazin-3-yl)-2,2,2-trifluoroethanol]
23 | > 15000 | 5.3 | – | – | O=C(NCc1cnc2ccc(-c3c(-c4ccc(F)cc4)ncn3CC(F)F)nn12)C1CC1 [Example 198′, N-((6-(1-(2,2-difluoroethyl)-4-(4-fluorophenyl)-1H-imidazol-5-yl)imidazo[1,2-b]pyridazin-3-yl)methyl)cyclopropanecarboxamide]
24 | > 15000 | 12 | – | – | COC(=O)NCc1cnc2ccc(-c3c(-c4ccc(F)cc4)ncn3CC(F)F)nn12 [Example 200′, methyl ((6-(1-(2,2-difluoroethyl)-4-(4-fluorophenyl)-1H-imidazol-5-yl)imidazo[1,2-b]pyridazin-3-yl)methyl)carbamate]
25 | > 15000 | 5 | – | – | CC(C)OC(=O)NCc1cnc2ccc(-c3c(-c4ccc(F)cc4)ncn3CC(F)F)nn12 [Example 201′, isopropyl ((6-(1-(2,2-difluoroethyl)-4-(4-fluorophenyl)-1H-imidazol-5-yl)imidazo[1,2-b]pyridazin-3-yl)methyl)carbamate]
26 | > 15000 | 7 | – | – | CCOC(=O)c1cnc2ccc(-c3c(-c4ccc(F)cc4)ncn3CC(F)F)cn12 [274C′, ethyl 6-(1-(2,2-difluoroethyl)-4-(4-fluorophenyl)-1H-imidazol-5-yl)imidazo[1,2-a]pyridine-3-carboxylate]
27 | > 15000 | 4.5 | – | – | COC(=O)Nc1cnc2ccc(-c3c(-c4ccc(F)cc4)ncn3CC(F)F)nn12 [Example 211′, methyl (6-(1-(2,2-difluoroethyl)-4-(4-fluorophenyl)-1H-imidazol-5-yl)imidazo[1,2-b]pyridazin-3-yl)carbamate]
28 | > 15000 | 9.8 | – | – | CC(C)(O)c1cccc(-c2ncn(CC(F)F)c2-c2ccc3ncc(C#N)n3n2)c1 [265′, 6-(1-(2,2-difluoroethyl)-4-(3-(2-hydroxypropan-2-yl)phenyl)-1H-imidazol-5-yl)imidazo[1,2-b]pyridazine-3-carbonitrile]
29 | > 15000 | – | – | – | N#Cc1cnc2ccc(-c3c(-c4ccc(F)cc4C(F)(F)F)ncn3CC(F)F)nn12 [261′, 6-(1-(2,2-difluoroethyl)-4-(4-fluoro-2-(trifluoromethyl)phenyl)-1H-imidazol-5-yl)imidazo[1,2-b]pyridazine-3-carbonitrile]
30 | – | 21.6 | – | – | NC(=O)c1cnc2ccc(-c3c(-c4ccc(F)cc4)nc4n3CCNC4)cn12 [Example 290′, 6-(2-(4-fluorophenyl)-5,6,7,8-tetrahydroimidazo[1,2-60]pyrazin-3-yl)imidazo[1,2-a]pyridine-3-carboxamide]
31 | – | 0.9 | – | – | Fc1ccc(-c2ncn(CC(F)F)c2-c2ccc3ncc(-c4cnco4)n3n2)cc1 [Example 216′, 5-(6-(1-(2,2-difluoroethyl)-4-(4-fluorophenyl)-1H-imidazol-5-yl)imidazo[1,2-b]pyridazin-3-yl)oxazole]
32 | – | 184 | – | – | CC(C)(O)c1cnc2ccc(-c3c(-c4ccc(F)cc4)ncn3CC(F)F)cn12 [Example 278′]
33 | – | 5 | – | – | CC[C@@H](CO)n1cnc(-c2ccc(F)cc2)c1-c1ccc2ncc(C#N)n2n1 [Example 6′, (S)-6-(4-(4-fluorophenyl)-1-(1-hydroxybutan-2-yl)-1H-imidazol-5-yl)imidazo[1,2-b]pyridazine-3-carbonitrile]
